Measured values as given in patent US10017681B2, “Corrosion inhibitors” (RHODIA OPERATIONS, priority 2014, dated 2018).
Where two headings read alike, the source gives them in different places. Marks after values point to notes of the source that are not given here.

Assays:
[1] = Bubble test (LPR), Example 1; conditions: on its own
Procedure: A bubble test was carried out as follows: • Clean corrosion cells were fitted with a stirring bar, auxiliary electrode, reference electrode, gas sparge tube, and glass periscope. • Each cell was charged with 999 g of the desired corrosion fluid. In this instance a 5% NaCl brine and Isopar M oil phase was used in a 9:1 ratio. • The cells were placed in a water bath set at 60° C. and set to stir at approximately 300 rpm. • Each cell was connected to a constant sparge of CO2 approx. 60 cm^3/min and then left for 1 hour to reach equilibrium. • C1018 mild steel coupons were washed with xylene and acetone to remove any vapour phase corrosion inhibitor and allowed to dry. • After the cells reached equilibrium the mild steel coupons were connected to the working electrodes and inserted into each cell using the glass periscopes to avoid getting the electrodes oil wet. • The LPR run was started and baseline corrosion data was collected for approximately 2.5 hours. • During this time 2% (w/w product) stock solutions of samples 1&2 were made up in deionised water.
The skilled reader will appreciate that the bubble test can only be used to evaluate if a product acts as a corrosion inhibitor and to rank corrosion inhibitors in order of effectiveness. […]

[2] = 20 ppm active; 1500 rpm; 60° C., CO2
Procedure: An RCE film persistency test was carried out as follows: • A clean jacketed RCE corrosion cell was fitted with an auxiliary electrode, reference electrode, and gas sparge tube. • The cell was charged with 899.1 g of 5% NaCl brine. • The temperature of the circulator connected to the jacketed cell was set to 60° C. • A constant CO2 sparge of approx. 200 cm^3/min was passed through the brine in the RCE cell which was then left for 1 hour to reach equilibrium. • A C1018 mild steel coupon was washed in xylene and acetone to remove any vapour phase corrosion inhibitor and allowed to dry. • After the RCE cell reached equilibrium the mild steel coupon was connected to the RCE shaft and inserted into the RCE cell. • Isopar M 99.9 g was then carefully transferred into the cell so that it floated on top of the brine. (This is done at this stage to prevent the working electrode from becoming oil wet as a periscope is unavailable) • The rotator was turned on and set to 1500 rpm. • Baseline corrosion data was collected for approximately 2.5 hours. • During this time 2% (w/w active) stock solutions of samples 2 or 3 were made up in methanol.

[3] = Rotating Cylinder Electrode (RCE) film persistency test (4000 rpm); conditions: 20 ppm active, 60° C.
Procedure: An RCE film persistency test was carried out as follows: • A clean jacketed RCE corrosion cell was fitted with an, auxiliary electrode, reference electrode, and gas sparge tube. • The cell was charged with 899.1 g of 5% NaCl brine. • The temperature of the circulator connected to the jacketed cell was set to 60° C. • A constant CO2 sparge of approx. 200 cm^3/min was passed through the brine in the RCE cell which was then left for 1 hour to reach equilibrium. • A C1018 mild steel coupon was washed in xylene and acetone to remove any vapour phase corrosion inhibitor and allowed to dry. • After the RCE cell reached equilibrium the mild steel coupon was connected to the RCE shaft and inserted into the RCE cell. • Isopar M 99.9 g was then carefully transferred into the cell so that it floated on top of the brine. (This is done at this stage to prevent the working electrode from becoming oil wet as a periscope is unavailable) • The rotator was turned on and set to 4000 rpm. (NB. This is the fastest speed achievable using current available equipment.) • Baseline corrosion data was collected for approximately 2.5 hours. • During this time a 2% (w/w active) stock solution of Rhodafac ASI 80 was made up in methanol. • After the baseline corrosion data was collected the stock solution was injected into the RCE cell at a concentration of 20 ppm (w/w active). • The corrosion rate in the cell was recorded for at least a further 12.5 hours.

[4] = LPR (Linear Polarisation Resistance) bubble test, Example 2; conditions: 90/10 5% NaCl/Isopar M, 60° C., CO2
Procedure: (§1) Corrosion inhibition properties were screened using the LPR (Linear Polarisation Resistance) bubble test method and the film persistence of the surfactants was evaluated using a Rotating Cylinder Electrode (RCE). The conditions were the same in both tests.
(§2) A 90/10 brine (5% w/w NaCl) and Isopar M (C9-15 iso-paraffins) mixture at 60° C. was saturated with CO2. The electrodes were immersed in the brine and left for several hours to establish the base line corrosion rate before injecting the surfactant.
The corrosion rate at 15 hours was used to benchmark the efficacy of the formulations containing octyl phosphonic acid against a commercial corrosion inhibitor. Synergistic properties of the surfactant mixtures were identified by comparing them against the corrosion rates of the individual surfactants.
The surfactant ratios for the LPR/RCE measurements were 80/20 and 50/50 Cl/octyl phosphonic acid and compared against the individual surfactants.

[5] = RCE film persistence under high shear (4000 rpm), Example 2; conditions: high shear rates (4000 rpm)
Procedure: as §1, §2
A shear rate of 4000 rpm was used to simulate very high shear conditions in order to determine the film persistence properties of the surfactants.
The persistence of the surfactant corrosion inhibitor film was also assessed under high shear rates (4000 rpm).

[6] = Foam tendency (dynamic foam test, ASTM G170-06); type: physicochemical; conditions: 1000 ppm active; 50/50 v/v Isopar M and 5% NaCl, 25° C.
Procedure: Foam tendencies were investigated using the methods described in ASTM G170-06 (2012) ‘Standard Guide for Evaluating and Qualifying Oilfield and Refinery Corrosion Inhibitors in the Laboratory’.
A graduated dynamic foam test apparatus (1000 ml measuring cylinder) fitted with a No. 1 porosity gas sparge tube was used for the test. 1000 ppm of corrosion inhibitor was added to a 50/50 v/v brine (5% NaCl solution) and Isopar M mixture (200 ml) at ambient temperature (25° C.). The mixture was left for 10 minutes before immersing the sparge tube in the brine layer. Nitrogen gas (flow rate: 0.5 litre/min) was injected into the solution and the volume of foam produced was measured over a set period of time (10 minutes).
If the foam reached the 1000 ml mark (800 ml foam volume) before the 10 minutes had elapsed then the time taken for the foam to reach the 1000 ml mark (800 ml of foam) was recorded. The volume of foam produced after the allotted time was also recorded.
The foam persistence was determined by measuring the foam volume after 10 minutes.

[7] = Solubility of samples when making stock solutions; type: physicochemical; conditions: 2% (w/w active) stock solutions in methanol
[8] = Dynamic surface tension (maximum bubble pressure method); type: physicochemical; conditions: 1000 ppm (as active) in 5% NaCl, 25° C., surface age 30 seconds
Procedure: Dynamic Surface Tension measurements were therefore carried out using a Messtechnik SITA T60 tensiometer for mixtures of the alkyl phosphonic acids with selected surfactants (anionic and amphoteric) in 5% NaCl.
These tests were carried out using the maximum bubble pressure method (see ‘Exploiting Surfactant Synergies in the Development of Foamers for Gas Well Deliqufication’, K Hatchman, C Jones, B Downward, G Collins, A Fellows, Proceedings of Chemistry In The Oil Industry XII, Royal Society of Chemistry, 2011).
The surface tensions were measured for 1000 ppm (as active) at a surface age of 30 seconds (equilibrium conditions) and ambient temperature (25° C.).

[9] = Emulsion tendency (ASTM G-170); type: physicochemical; conditions: for Brine (ml) @ T = 30 mins / Isopar M (ml) @ T = 30 mins / Pad (ml) @ T = 30 mins / Emulsion Layer (%): 1000 ppm active, 50/50 v/v Isopar M and 5% NaCl, 25° C.; for Emulsion Layer (%): after 30 minutes
Procedure: The emulsification behaviours of the alkyl phosphonic acids were investigated using the standard test procedure, ASTM G-170. It will be appreciated that, in general, corrosion inhibition formulations which have a low tendency to form emulsions with hydrocarbons are preferred.
1000 ppm active corrosion inhibitor formulation was added to a 250 ml measuring cylinder containing 100 ml 50/50 v/v 5% NaCl and Isopar M respectively. The cylinder was sealed and shaken 100 times.
The mixture was allowed to rest and the emulsion and brine layer volumes were recorded. The brine, Isopar M and emulsion layers were measured at 5, 10 and 30 minutes respectively.

Molecule | Average corrosion rate [bubble test] (mils/y) ([4]; 4 ppm) | Average corrosion rate [weight loss] (mils/y) ([4]; 4 ppm) | Effciency at T = 15 (%) ([4]; 4 ppm) | Average corrosion rate [bubble test] (mils/y) ([4]; 20 ppm) | Average corrosion rate [weight loss] (mils/y) ([4]; 20 ppm) | Effciency at T = 15 (%) ([4]; 20 ppm) | Average corrosion rate [bubble test] (mils/y) ([5]; 4 ppm) | Average corrosion rate [weight loss] (mils/y) ([5]; 4 ppm) | Effciency at T = 15 (%) ([5]; 4 ppm) | Average corrosion rate [bubble test] (mils/y) ([5]; 20 ppm) | Average corrosion rate [weight loss] (mils/y) ([5]; 20 ppm) | Effciency at T = 15 (%) ([5]; 20 ppm) | Foam Volume after 10 minutes [6] [mL] | Time to 1000 ml (secs) [6] | Surface tension at 30 second (mN/m) [8] | Brine (ml) @ T = 30 mins [9] [mL] | Isopar M (ml) @ T = 30 mins [9] | Pad (ml) @ T = 30 mins [9] [mL] | Emulsion Layer (%) [9] [%] | further results
ethylhexyl acid phosphate | – | – | – | – | – | – | – | – | – | – | – | – | – | – | – | – | – | – | – | corrosion inhibition properties [1]: no corrosion inhibition properties
CCCCCCCCP(=O)(O)O [Octyl Phosphonic Acid (80%), Octyl Phosphonic Acid] | 267.4 | 244.3 | 0 | 49.1 | 48.1 | greater than 95% | 267.4 | 244.3 | 0 | 49.1 | 48.1 | 96.3 | 0 | No foam | – | – | – | – | – | Average corrosion rate (RCE test) [2]: 61 mils/y; Average corrosion rate (Weight Loss) [2]: 56 mils/y; Efficiency at T = 15 [2]: 96%; Average corrosion rate (RCE test) ([3]; CO2): 89 mils/y; Average corrosion rate (Weight Loss) ([3]; CO2): 56 mils/y; Effciency at T = 15 ([3]; CO2): 93%; Effciency at T = 15 ([3]; CO2, listed as octylphosphonic acid): > 90%; Effciency at T = 15 (%) ([4]; 20 ppm, listed as OPA (80%)): 96.3%; solubility in methanol [7]: fully soluble in methanol
CCCCCCCCCCCCP(=O)(O)O [Lauryl Phosphonic Acid] | – | – | – | – | – | – | – | – | – | – | – | – | – | – | 38.8* mN/m | – | – | – | – | –
CCCCCCCCCCCCP(=O)(O)O [Lauryl Phosphonic Acid (100%), Lauryl Phosphonic Acid] | 174.2 | 146.8 | 27.6 | 33.4 | 58.5 | 98.5% | 174.2 | 146.8 | 27.6 | 33.4 | 58.5 | 98.5 | 0 | No foam | – | 41 | 12** ml | 0 | 0 | observation on the hydrocarbon layer ([9]; emulsification test, footnote): **Lauryl phosphonic acid appears to gel the hydrocarbon, effectively reducing the phase separation rate of the different layers
CCCCCCCCP(=O)(O)O [Octyl Phosphonic Acid (100%)—OPA, Octyl Phosphonic Acid] | – | – | – | – | – | – | – | – | – | – | – | – | – | – | – | 50 | 50 mL | 0 | 0 | –
CCCCCCCCP(=O)(O)O [Octyl Phosphonic Acid] | – | – | – | – | – | – | – | – | – | – | – | – | – | – | 58.5* mN/m | – | – | – | – | –
